Results as given in US11130780B2, “Inhibitors of growth factor activation enzymes” (Washington University, priority 2015, dated 2021).
Several values for one entry are separate records, joined by “and”; a condition that tells them apart may be missing. Equal values may be shown once.

Tests used:
Format in all cases: biochemical
[1] = molecular target: T1, HGFA (Homo sapiens, UniProt Q04756); test: Chromogenic kinetic enzyme inhibitor assay of HGFA; settings: Table 4.1; chromogenic substrate Pefachrome FVIIa
T1 construct: His6 tag (N); seven amino acid spacer and seven amino acid TEV cleavage site (N); Honey Bee melittin signal peptide (N); made in house; host or cells: High 5 insect cells (baculovirus; virus raised in Sf9)
T1 sequence (Q04756 373-655): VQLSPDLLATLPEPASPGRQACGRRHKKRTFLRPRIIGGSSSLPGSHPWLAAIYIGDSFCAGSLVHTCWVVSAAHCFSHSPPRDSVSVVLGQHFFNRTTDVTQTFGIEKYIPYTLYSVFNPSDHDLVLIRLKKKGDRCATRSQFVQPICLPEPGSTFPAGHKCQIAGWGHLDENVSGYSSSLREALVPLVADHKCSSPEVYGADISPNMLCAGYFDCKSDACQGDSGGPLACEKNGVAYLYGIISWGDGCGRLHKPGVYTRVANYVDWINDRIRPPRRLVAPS
Source text: This PCR product was cloned into the SfoI-HindIII sites of a modified pFastBac HT baculovirus expression vector (Addgene, Cambridge, Mass.). This vector contains a six amino His tag followed by a seven amino spacer and a seven amino acid TEV cleavage site placed immediately downstream of the Honey Bee melittin signal peptide. Using a modified Bac to Bac Expression System (Life Technologies, Carlsbad, Calif.), recombinant HGFA bacmids were obtained by transforming DH10Bac Escherichia coli cells. To obtain HGFA containing baculovirus, purified bacmids were transfected into Sf9 insect cells. After 5 days in culture at 27° C., media was harvested from transfected Sf9 cells. This media was used to prepare baculovirus infected insect cells (BIICs). These BIIICs were used to infect High 5 insect cells. Four days post infection, media was harvested and recombinant protein prepared as follows. Media was chilled to 4° C. and spun at 4000×g for 20 minutes (all subsequent steps were performed at 4° C. unless noted). […] Concentrated media was then buffer exchanged in two steps, five volumes of 50 mM Na-phosphate, 500 mM NaCl, pH 6.2, followed by five volumes of 50 mM Na-phosphate, 500 mM NaCl, pH 7.5. […] After mixing this slurry for 12 hours, nickel agarose beads were allowed to settle by gravity and then loaded into a column. Beads were washed with buffer (25 mM Na-phosphate, 500 mM NaCl, 25 mM imidazole, pH 8) and the bound protein eluted using (25 mM Na-phosphate, 500 mM NaCl, 250 mM imidazole, pH 8). Using a Amicon Ultra-4 Centrifugal filters (#UFC801008, Merck Millipore, Ltd., Tullagreen, Ireland), peak protein fractions were concentrated and run over a Superdex-200 10/300 GL column (GE Healthcare Life Sciences, Piscataway, N.J.) in 10 mM Tris, 200 mM NaCl, 0.2 mM EDTA, pH 8. HGFA containing fractions were pooled, concentrated, made 50% glycerol, and stored at minus 20° C. Protein was quantitated using a modified Lowry protein assay (#500-0006, Bio-Rad Laboratories, Hercules, Calif.).
Using Gen 5 2.00 software program (Biotek, Winnoski, Vt.), a four parameter curve fit was used to determine the inhibitor IC50s from a plot of the mean reaction velocity versus the inhibitor concentration. The IC50 values represent the average of three separate experimental determinations.

[2] = molecular target: T1, HGFA; test: Fluorescent kinetic enzyme inhibitor assay of HGFA; settings: for Ki: Table 4.2, Boc-QLR-AMC substrate, read-out: HGFA Ki
Outline: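 Recombinant His-tagged HGFA residues 373-655 from insect cells, with substrate at Km. Inhibitors in 11-point dilutions, 0-20 μM final, 2% DMSO, fluorescence (ex 380/em 460 nm) followed over time at room temperature. IC50 from four-parameter fit of mean velocity, average of three experiments.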

[3] = molecular target: T2, matriptase (Homo sapiens, UniProt Q9Y5Y6); test: Fluorescent kinetic enzyme inhibitor assay of matriptase; settings: for IC50: Table 4.1
T2 construct: Charles Craik, UCSF (obtained from another laboratory)
T2 sequence (Q9Y5Y6 615-855 limits assumed): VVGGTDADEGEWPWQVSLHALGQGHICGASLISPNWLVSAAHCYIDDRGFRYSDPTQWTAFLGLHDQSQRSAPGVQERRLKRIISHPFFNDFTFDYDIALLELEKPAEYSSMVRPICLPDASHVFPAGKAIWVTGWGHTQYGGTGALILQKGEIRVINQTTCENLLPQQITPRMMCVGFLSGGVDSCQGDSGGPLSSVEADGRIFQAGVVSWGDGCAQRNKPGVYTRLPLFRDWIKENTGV
Experimental: (§1) Inhibitors (11-pt serial dilutions, 0-20 μM final concentration in reaction) were serially diluted in DMSO (2% DMSO final concentration) and then mixed with either recombinant serine protease domain of HGFA [Z. Han, P. K. Harris, D. E. Jones, R. Chugani, T. Kim, M. Agarwal, W. Shen, S. A. Wildman, J. W. Janetka, Acs Med Chem Lett 2014, 5, 1219-1224], matriptase (Charles Craik, UCSF) or hepsin* (#4776-SE-010, R&D Systems, Minneapolis, Minn.) in black 384 well plates (Corning #3575. Corning, N.Y.). […] The final substrate concentrations for all assays were at the Km for the respective enzymes. Changes in fluorescence (excitation at 380 nm and emission at 460 nm) were measured at room temperature over time in a Biotek Synergy 2 plate reader (Winnoski, Vt.). Using GraphPad Prism version 6.04 software program, (GraphPad Software, San Diego, Calif., www.graphpad.com), a four parameter curve fit was used to determine the inhibitor IC50s from a plot of the mean reaction velocity versus the inhibitor concentration. The IC50 values represent the average of three separate experimental determinations.

[4] = molecular target: T3, hepsin (Homo sapiens, UniProt P05981); test: Fluorescent kinetic enzyme inhibitor assay of hepsin; settings: for IC50: Table 4.1; for Ki: Table 4.2, Boc-QAR-AMC substrate, read-out: Hepsin Ki
T3 construct: purchased R&D Systems 4776-SE-010
Experimental: as §1

T3 sequence (P05981 163-417 limits assumed): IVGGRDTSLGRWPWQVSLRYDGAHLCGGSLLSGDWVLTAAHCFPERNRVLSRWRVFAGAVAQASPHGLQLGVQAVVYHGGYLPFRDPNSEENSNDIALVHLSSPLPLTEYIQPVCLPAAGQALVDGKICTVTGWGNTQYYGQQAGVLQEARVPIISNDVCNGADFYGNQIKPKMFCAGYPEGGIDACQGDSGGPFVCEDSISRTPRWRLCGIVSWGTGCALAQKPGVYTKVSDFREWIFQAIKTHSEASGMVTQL
T3 sequence (P05981 45-162 partner limits assumed): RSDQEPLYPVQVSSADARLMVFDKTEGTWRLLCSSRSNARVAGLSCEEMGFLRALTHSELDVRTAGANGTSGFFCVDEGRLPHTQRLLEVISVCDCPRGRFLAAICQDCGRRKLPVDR

| Compound | IC50 [1] | Ki [2] [nM] | also measured |
| --- | --- | --- | --- |
| CC(=O)N[C@@H](CO)C(=O)N[C@H](CCCNC(=N)N)C(=O)N[C@@H](CC(C)C)C(=O)N[C@H](CCCNC(=N)N)C(=O)c1nccs1 [Compound 6e-3, Ac-SdRLdR-kt] | 11900 nM |  |  |
| CC(C)C[C@H](NC(=O)[C@H](CCC(N)=O)NC(=O)[C@@H](N)CCCCN)C(=O)N[C@@H](CCCNC(=N)N)C(=O)c1nccs1 [H-KQLR(SEQ ID NO: 1)-Kt] | 440 nM |  |  |
| CC(=O)N[C@@H](CO)C(=O)N[C@@H](Cc1c[nH]cn1)C(=O)N[C@@H](CC(C)C)C(=O)N[C@@H](CCCNC(=N)N)C(=O)c1nccs1 [Compound 6a, Ac-SHLR(SEQ ID NO: 11)-kt] | 1800 nM | 332 | IC50 [3]: 560 nM; IC50 [4]: 5 nM |
| CC(=O)N[C@@H](CCCCN)C(=O)N[C@@H](Cc1c[nH]cn1)C(=O)N[C@@H](CC(C)C)C(=O)N[C@@H](CCCNC(=N)N)C(=O)c1nccs1 [Compound 5a, Ac-KHLR(SEQ ID NO: 2)-kt] | 650 nM | 96 |  |
| CC(=O)N[C@@H](CC(C)C)C(=O)N[C@@H](CC(C)C)C(=O)N[C@@H](CCCNC(=N)N)C(=O)c1nccs1 [Ac-LLR-kt] | 1480 nM | 253 |  |
| CC(=O)N[C@H](C(=O)N[C@@H](CCCCN)C(=O)N[C@@H](CC(C)C)C(=O)N[C@@H](CCCNC(=N)N)C(=O)c1nccs1)[C@@H](C)O [Compound 6f, Ac-TKLR(SEQ ID NO: 16)-kt] | 567 nM | 103 |  |
| CC(=O)N[C@@H](CCCCN)C(=O)N[C@@H](Cc1c[nH]cn1)C(=O)N[C@@H](CC(C)C)C(=O)N[C@H](CCCNC(=N)N)C(=O)c1nccs1 [Compound 5a-1, Ac-KHLdR-kt] | 10900 nM |  |  |
| CC(C)C[C@H](NC(=O)[C@H](CCC(N)=O)NC(=O)[C@@H](N)CCCCN)C(=O)N[C@H](CCCNC(=N)N)C(=O)c1nccs1 [H-KQLdR-kt] | 11300 nM |  |  |
| CC(=O)N[C@@H](CO)C(=O)N[C@@H](Cc1c[nH]cn1)C(=O)N[C@@H](CC(C)C)C(=O)N[C@H](CCCNC(=N)N)C(=O)c1nccs1 [Compound 6a-1, Ac-SHLdR-kt] | 21200 nM |  |  |
| CC(=O)N[C@@H](CC(C)C)C(=O)N[C@@H](CC(C)C)C(=O)N[C@H](C=O)CCCNC(=N)N [Leupeptin, reference compound] | 535 nM | 188 | fold selective for HGFA over matriptase [2]: 3 fold; IC50 [3]: 1150 nM; fold more potent for hepsin versus HGFA [4]: 3 fold; IC50 [4]: 256 nM |
| CC(=O)N[C@@H](CO)C(=O)N[C@@H](CCCCN)C(=O)N[C@@H](CC(C)C)C(=O)N[C@H](CCCNC(=N)N)C(=O)c1nccs1 [Compound 6-1, Ac-SKLdR-kt] | 6310 nM |  |  |
| CC(=O)N[C@@H](CCCNC(=N)N)C(=O)N[C@@H](CCCCN)C(=O)N[C@@H](CC(C)C)C(=O)N[C@@H](CCCNC(=N)N)C(=O)c1nccs1 [Compound 6h, Ac-RKLR(SEQ ID NO: 18)-kt] | 370 nM | 17 |  |

Further lines, with some results ahead:

| IC50 [1] | Ki [2] [nM] | Compound | also measured |
| --- | --- | --- | --- |
| 180 nM | 182 | CC(=O)N[C@@H](CO)C(=O)N[C@@H](CCC(N)=O)C(=O)N[C@@H](CC(C)C)C(=O)N[C@@H](CCCNC(=N)N)C(=O)c1nccs1 [Compound 5f, Ac-SQLR(SEQ ID NO: 7)-kt] |  |
| 7820 nM |  | CC(=O)N[C@@H](CCCCN)C(=O)N[C@@H](CCC(N)=O)C(=O)N[C@@H](Cc1ccccc1)C(=O)N[C@H](CCCNC(=N)N)C(=O)c1nccs1 [Compound 5c-1, Ac-KQFdR-kt] |  |
| 3120 nM |  | CC(=O)N[C@@H](CCCNC(=N)N)C(=O)N[C@@H](CCC(N)=O)C(=O)N[C@@H](CC(C)C)C(=O)N[C@H](CCCNC(=N)N)C(=O)c1nccs1 [Compound 5e-1, Ac-RQLdR-kt] |  |
| 471 nM | 65 | CC(=O)N[C@@H](Cc1c[nH]c2ccccc12)C(=O)N[C@@H](CCC(N)=O)C(=O)N[C@@H](CC(C)C)C(=O)N[C@@H](CCCNC(=N)N)C(=O)c1nccs1 [Compound 5b, Ac-WQLR(SEQ ID NO: 3)-kt] | IC50 [3]: 49 nM; IC50 [4]: 1 nM; Ki [4]: 0.21 nM |
| 330 nM | 80 | CC(=O)N[C@@H](CCCCN)C(=O)N[C@@H](Cc1ccccc1)C(=O)N[C@@H](CC(C)C)C(=O)N[C@@H](CCCNC(=N)N)C(=O)c1nccs1 [Compound 5d, Ac-KFLR(SEQ ID NO: 5)-kt] | selectivity among HGFA, matriptase and hepsin [2]: HGFA selectivity over both hepsin and matriptase; IC50 [3]: 35 nM; Ki ([3]; Table 4.2, Boc-QAR-AMC substrate): 15 nM; IC50 [4]: 22 nM; Ki [4]: 2.1 nM |
| 5530 nM |  | CC(=O)N[C@@H](CCCCN)C(=O)N[C@@H](CCC(N)=O)C(=O)N[C@@H](CC(C)C)C(=O)N[C@H](CCCNC(=N)N)C(=O)c1nccs1 [Compound 5-1, Ac-KQLdR-kt] |  |
| 320 nM | 56 | CC(=O)N[C@@H](Cc1c[nH]c2ccccc12)C(=O)N[C@@H](CCCCN)C(=O)N[C@@H](CC(C)C)C(=O)N[C@@H](CCCNC(=N)N)C(=O)c1nccs1 [Compound 6b, Ac-WKLR(SEQ ID NO: 12)-kt] | IC50 [3]: 97 nM; IC50 [4]: 4 nM |
| 397 nM and 400 nM | 79 | CC(=O)N[C@@H](CC(N)=O)C(=O)N[C@@H](CCCCN)C(=O)N[C@@H](CC(C)C)C(=O)N[C@@H](CCCNC(=N)N)C(=O)c1nccs1 [Compound 6d, Ac-NKLR(SEQ ID NO: 14)-kt] | Ki [4]: 1.41 nM |
| 6500 nM |  | CC(=O)N[C@@H](Cc1c[nH]c2ccccc12)C(=O)N[C@@H](CCCCN)C(=O)N[C@@H](CC(C)C)C(=O)N[C@H](CCCNC(=N)N)C(=O)c1nccs1 [Compound 6b-1, Ac-WKLdR-kt] |  |
| 7120 nM |  | CC(=O)N[C@@H](Cc1c[nH]c2ccccc12)C(=O)N[C@@H](CCC(N)=O)C(=O)N[C@@H](CC(C)C)C(=O)N[C@H](CCCNC(=N)N)C(=O)c1nccs1 [Compound 5b-1, Ac-WQLdR-kt] |  |
